Data set [1] in a line: Sweetness level as sucrose equivalent. Type of data set: in vivo, human. The procedure: (§1) An exemplary method of sensory evaluation is provided in the following protocol, similar to that described hereinabove. In this test protocol, none of the samples were swallowed. All samples were expectorated and the mouth was rinsed with water after the tasting. In step 1, the 10% sucrose control sample was tasted by distributing ca. 10 mL of sample quickly throughout the oral cavity, wherein the maximal “Sweetness Intensity” was measured. This intensity is defined as a 10 on a 0-15 scale where 0 is defined as no perceptible sweetness and 15, the sweetness of 15% sucrose. Immediately upon sensing maximal sweetness, the sample was expectorated, the mouth was rinsed with water and the rate of sweetness decay (“Sweetness Linger”) was measured, where attention was focused on the sweetness 3-4 min after the water rinse. The sweetness linger was rated by a panel of experts in the sensory evaluation of foods and beverages using the following scale: 0=no sweetness linger, 1=very slight sweetness linger, 2=slight sweetness linger, 3=moderate sweetness linger, 4=moderately high sweetness linger, 5=high sweetness linger. After sample tasting was complete, a salty oyster cracker was chewed followed by a water rinse, and at least 5 minutes followed before tasting the next sample.

The nature of data set [2]: Sweetness linger sensory evaluation by expert panel (protocol of Example A). Type of data set: in vivo, human. Also on record: key: 0=no sweetness linger; 1=very slight sweetness linger; 2=slight sweetness linger; 3=moderate sweetness linger; 4=moderately high sweetness linger; 5=high sweetness linger. The procedure:
In a particular embodiment, a panel of assessors is used to measure the reduction of sweetness linger. Briefly described, a panel of assessors (generally 8 to 12 individuals) is trained to evaluate sweetness perception and measure sweetness at several time points from when the sample is initially taken into the mouth until 3 minutes after it has been expectorated. […] A decrease in score for a time point measured after the sample has cleared the mouth indicates there has been a reduction in sweetness perception.
Generally, the method of measuring sweetness comprises taking a 10 mL sample into the mouth, holding the sample in the mouth for 5 seconds and gently swirling the sample in the mouth, rating the sweetness intensity perceived at 5 seconds, expectorating the sample (without swallowing following expectorating the sample), rinsing with one mouthful of water (e.g., vigorously moving water in mouth as if with mouth wash) and expectorating the rinse water, rating the sweetness intensity perceived immediately upon expectorating the rinse water, waiting 45 seconds and, while waiting those 45 seconds, identifying the time of maximum perceived sweetness intensity and rating the sweetness intensity at that time (moving the mouth normally and swallowing as needed), rating the sweetness intensity after another 10 seconds, rating the sweetness intensity after another 60 seconds (cumulative 120 seconds after rinse), and rating the sweetness intensity after still another 60 seconds (cumulative 180 seconds after rinse). Between samples take a 5 minute break, rinsing well with water to clear the mouth.
as §1
The “Sweetness Linger” rating for sucrose observed by this protocol was defined as 0. Experimental samples were tasted by the same protocol, always allowing sufficient time between samples to ensure re-equilibration of the sensory system. Re-tasting of control samples during the course of the experiment was allowed and encouraged.
The comparison taste test was performed between two controls and addition of sweet taste improving additive on the onset and/or sweetness linger.
Where there are ranges provided in the examples, a number of beverages comprising the NHPS, such as rebaudioside-A (REBA), were made 5-7 levels from the top to the bottom range, using a 1:1 dilution of the corresponding sweet taste improving compositions. The sweetness linger rating reported was the most sugar-like in sweetness linger (the lowest numerical value) attained of all the samples (i.e., the shortest sweetness linger). The tasting protocol and sensory scores described in the exemplary protocol of Example A were used in the Examples of Set B. […]

Data set [3] is classed as physicochemical. On the procedure:
A solution of rebaudioside A (>97% pure by HPLC) was prepared in double distilled water (12.5 gm in 50 mL, 25% concentration) by stirring the mixture at 40° C. for 5 minutes. An amorphous form of rebaudioside A was formed by immediately using the clear solution for spray drying with the Lab-Plant spray drier SD-04 instrument (Lab-Plant Ltd., West Yorkshire, U.K.). The solution was fed through the feed pump into the nozzle atomizer which atomized it into a spray of droplets with the help of a constant flow of nitrogen/air. […] This dry powder (11-12 g, H2O 6.74%) was discharged continuously from the drying chamber and was collected in a bottle.

Regarding rebaudioside A, the entries for the “sucrose equivalent of sweetness” value in data set [1] (180 ppm REBA) and in data set [1] (400 ppm REBA in citric acid/potassium citrate composition) were 5 % sucrose and 8 g sucrose, respectively. Further, the sweetness linger rating was found to be 5 in data set [2] (control: 400 ppm REBA in citric acid/potassium citrate composition equivalent to diet lemon-lime beverage) and 5 in data set [2] (control: 500 ppm REBA in carbon-treated water, phosphoric acid to pH 2.4-2.5).
For “mono-ammonium glycyrrhizic acid salt hydrate”, the sweetness level in data set [1] (375 mg in one liter of carbon-treated water) turned out to be 4 % sucrose equivalent. This compound displayed a sweetness linger in data set [2] (control: 375 mg in one liter of carbon-treated water) of 5.
For the compound rebaudioside A [Form 4], in data set [3], the “solubility in water at room temperature” value is on record as more than 35.0%.
In the case of `OC[C@H]1O[C@@](CO)(O[C@H]2O[C@H](CO)[C@@H](O)[C@H](O)[C@H]2O)[C@@H](O)[C@@H]1O` [sugar, sucrose], the sweetness linger rating in data set [2] (control: 8 g of sugar in 100 ml of citrate buffer) is 0; in data set [2] (control: 10 g in 100 ml of carbon treated water) it was 0; in data set [2] (control: 10 g of sugar in 100 ml carbon treated water, phosphoric acid to pH 2.4-2.5), 0.

The values above are taken from patent publication US9011956B2, “Natural high-potency sweetener compositions with improved temporal profile and/or flavor profile, methods for their formulation, and uses” (The Coca-Cola Company, priority 2005, dated 2015).
